{"source": "patent US6790645B2", "about": "“Oxidation of a cyclohexanone derivative using a brevibacterium cyclohexanone monooxygenase” (E. I. du Pont de Nemours and Company, priority 1999, dated 2004)", "key": {"[1]": {"system": "E. coli strains carrying plasmids pPCB1 and pPCB2 that express the monooxygenase ORF 1.3 and ORF 2.4", "assay": "Conversion of cyclohexanone into caprolactone by cell suspensions, GC-MS", "assay_type": "cell-based", "conditions": "100 ppm cyclohexanone, M9 medium with 0.2% glucose, IPTG-induced cells (FIG. 5)", "experimental": "Confirmation of the oxidation of cyclohexanone into caprolactone was determined by GC-Mass Spectrometry on a HP 5890 Gas Chromatograph with HP 5971 mass selective detector equipped with a HP-1 capillary column (Hewlett Packard). Prior to analysis, samples were acidified to pH 3 by HCl, extracted by dichloromethane three times, dried with MgSO4 and filtered.\nTwenty ml cultures of E. coli strains carrying plasmids pPCB1 and pPCB2 that express the monooxygenase ORF 1.3 and ORF 2.4 respectively were grown at 30° C. in LB medium containing Ampicillin (100 μg/ml) and tetracyclin (10 μg/ml). When the absorbance reached 0.1 at 600 nm, 1 mM IPTG was added to the culture to induce the monooxygenases. After 1 hr, the cultures were chilled and washed twice with M9 mineral medium (Sambrook, J., Fritsch, E. F. and Maniatis, T. Molecular Cloning: A Laboratory Manual, Second Edition, Cold Spring Harbor Laboratory Press, Cold Spring Harbor (1989)) and resuspended in 2 ml of the same medium containing 0.2% glucose and 100 ppm of cyclohexanone. After one hr the cells were removed from the culture by centrifugation and supernatant was analyzed by GC-MS as described in the General Methods. The GC-MS analysis indicated the disappearance of cyclohexanone and the appearance of caprolactone. […]"}, "[2]": {"system": "Brevibacterium monooxygenase 2 (ORF 2.4)", "assay": "Spectrophotometric monooxygenase assay (NADPH oxidation at 340 nm), substrate specificity for cyclic ketones, monooxygenase 2", "assay_type": "biochemical, Brevibacterium sp HCU", "conditions": "NADPH 0.3 mM, pH7, 30° C., activities below 2.0 could reflect contaminants", "experimental": "(§1) The cyclohexanone monooxygenase activity of each overexpressed enzyme was assayed spectrophotometrically at 340 nm by monitoring the oxidation of NADPH. In a spectrophotometer cuvette containing 50 mM Tris-HCl, 50 mM K Acetate pH7 at 30° C. NADPH 0.3 mM and 20-50 μg of homogenous monooxygenase the reaction was initiated by the addition of 1 mM of cyclohexanone. Substrate specificity of each enzyme was tested with other cyclic ketones added at 0.1 or 0.5 mM.\n(§2) Expression of the His6-tagged proteins was done by growing the cells carrying the expression plasmids in 1 l of Luria-Bertani broth (Miller 1972) containing Ampicillin (100 μg/ml) and tetracyclin (10 μg/ml) at 28° C. Riboflavin (1 μg/ml) was also added to the medium since both monooxygenases are flavoproteins. When the absortion reached 0.5 at 600 nm, 1 mM isopropy-thio-b-galactoside (IPTG) was added to the culture. Cells were harvested 1.5 hr later, resuspended in 2 ml of 300 mM NaCl 5% glycerol 20 mM Tris-HCl pH 8.0 (Buffer A) containing 10 mM EDTA and 100 μg lysozyme and disrupted by three freeze/thaw cycles. Nucleic acids were digested by addition of MgCl2 (20 mM) RNAseA and DNAse I (10 μg each). The particulate fraction was removed by centrifugation at 14,000 RPM and the supernatant was mixed for 1 hr at 4° C. with 100 μl of a metal chelation agarose (Ni-NTA Superflow Qiagen, Valencia, Calif.) saturated with Ni(II) and equilibrated Buffer A containing 5 mM imidazole. The resin was washed bathchwise with 10 ml each of Buffer A containing 5, 10, 15, 20, 40, 80, 150 and 300 mM respectively. The bound proteins were eluted between 80 and 150 mM imidazole. Eluted proteins were concentrated by ultrafiltration with a Centricon device (cut off 10,000 Da, Amicon) and the buffer replaced by Buffer A. Homogeneity of the overexpressed proteins is shown in FIG. 3, which show a gel electrophoresis separation of proteins from control E. coli (lane 1), E. coli expressing ORF 1.3 (lane 2) and E. coli expressing ORF 2.4 (lane 3).\n(§3) Each monooxygenase oxidized cyclohexanone as measured spectrophoto-metrically by monitoring the oxidation of NADPH at 340 nm. No activity was observed when NADPH was replaced by NADH. The product of the cyclohexanone oxidation was confirmed to be caprolactone by GC-MS analysis. Monooxygenase 1 and 2 have different substrate specificity relative to the number of carbon atoms, the oxidation or the substitution of the ring."}, "[3]": {"system": "Brevibacterium monooxygenase 1 (ORF 1.3)", "assay": "Spectrophotometric monooxygenase assay (NADPH oxidation at 340 nm), substrate specificity for cyclic ketones, monooxygenase 1", "assay_type": "biochemical, Brevibacterium sp HCU", "conditions": "NADPH 0.3 mM, pH7, 30° C., activities below 2.0 could reflect contaminants", "experimental": "as §1, §2, §3"}}, "data": [{"smiles": "O=C1CCCCC1", "note": "[cyclohexanone]", "values": [{"measurement": "time until all cyclohexanone was oxidized", "setting": "[1]", "value": "about 75 min"}, {"measurement": "Mono 2 rate", "setting": "[2]; substrate 0.1 mM", "value": 100, "unit": "min⁻¹"}, {"measurement": "Mono 2 rate", "setting": "[2]; substrate 0.5 mM", "value": 100, "unit": "min⁻¹"}, {"measurement": "Mono 1 rate", "setting": "[3]; substrate 0.1 mM", "value": 160, "unit": "min⁻¹"}, {"measurement": "Mono 1 rate", "setting": "[3]; substrate 0.5 mM", "value": 290, "unit": "min⁻¹"}]}, {"smiles": "O=C1CCCCCC1", "note": "[cycloheptanone]", "values": [{"measurement": "Mono 2 rate", "setting": "[2]; substrate 0.1 mM", "value": 3.9, "unit": "min⁻¹"}, {"measurement": "Mono 2 rate", "setting": "[2]; substrate 0.5 mM", "value": 8.6, "unit": "min⁻¹"}, {"measurement": "Mono 1 rate", "setting": "[3]; substrate 0.1 mM", "value": 4.5, "unit": "min⁻¹"}, {"measurement": "Mono 1 rate", "setting": "[3]; substrate 0.5 mM", "value": 18, "unit": "min⁻¹"}]}, {"smiles": "O=C1CCCCC1C1=CCCCC1", "note": "(centres unmarked) [2-(cyclohex-1-enyl)cyclohexanone]", "values": [{"measurement": "Mono 2 rate", "setting": "[2]; substrate 0.5 mM", "value": 2.4, "unit": "min⁻¹"}, {"measurement": "Mono 1 rate", "setting": "[3]; substrate 0.1 mM", "value": 160, "unit": "min⁻¹"}, {"measurement": "Mono 1 rate", "setting": "[3]; substrate 0.5 mM", "value": 260, "unit": "min⁻¹"}]}, {"smiles": "O=C1CCCC1", "note": "[cyclopentanone]", "values": [{"measurement": "Mono 2 rate", "setting": "[2]; substrate 0.1 mM", "value": 90, "unit": "min⁻¹"}, {"measurement": "Mono 2 rate", "setting": "[2]; substrate 0.5 mM", "value": 120, "unit": "min⁻¹"}, {"measurement": "Mono 1 rate", "setting": "[3]; substrate 0.1 mM", "value": 1.2, "unit": "min⁻¹"}, {"measurement": "Mono 1 rate", "setting": "[3]; substrate 0.5 mM", "value": 7.0, "unit": "min⁻¹"}]}, {"smiles": "CC1CCCC1=O", "note": "(centres unmarked) [2-methylcyclopentanone]", "values": [{"measurement": "Mono 2 rate", "setting": "[2]; substrate 0.1 mM", "value": 120, "unit": "min⁻¹"}, {"measurement": "Mono 2 rate", "setting": "[2]; substrate 0.5 mM", "value": 110, "unit": "min⁻¹"}, {"measurement": "Mono 1 rate", "setting": "[3]; substrate 0.1 mM", "value": 40, "unit": "min⁻¹"}, {"measurement": "Mono 1 rate", "setting": "[3]; substrate 0.5 mM", "value": 110, "unit": "min⁻¹"}]}, {"smiles": "O=C1CCCCC1=O", "note": "[1,2-cyclohexanedione]", "values": [{"measurement": "Mono 2 rate", "setting": "[2]; substrate 0.1 mM", "value": 7.6, "unit": "min⁻¹"}, {"measurement": "Mono 2 rate", "setting": "[2]; substrate 0.5 mM", "value": 34, "unit": "min⁻¹"}, {"measurement": "Mono 1 rate", "setting": "[3]; substrate 0.1 mM", "value": 9, "unit": "min⁻¹"}, {"measurement": "Mono 1 rate", "setting": "[3]; substrate 0.5 mM", "value": 52, "unit": "min⁻¹"}]}, {"smiles": "O=C1CCCCCCCCCC1", "note": "[cycloundecanone]", "values": [{"measurement": "Mono 2 rate", "setting": "[2]; substrate 0.1 mM", "value": 0.6, "unit": "min⁻¹"}, {"measurement": "Mono 2 rate", "setting": "[2]; substrate 0.5 mM", "value": 0.9, "unit": "min⁻¹"}, {"measurement": "Mono 1 rate", "setting": "[3]; substrate 0.1 mM", "value": 1.2, "unit": "min⁻¹"}, {"measurement": "Mono 1 rate", "setting": "[3]; substrate 0.5 mM", "value": 1.4, "unit": "min⁻¹"}]}, {"smiles": "O=C1CCC1", "note": "[cyclobutanone]", "values": [{"measurement": "Mono 2 rate", "setting": "[2]; substrate 0.1 mM", "value": 92, "unit": "min⁻¹"}, {"measurement": "Mono 2 rate", "setting": "[2]; substrate 0.5 mM", "value": 96, "unit": "min⁻¹"}, {"measurement": "Mono 1 rate", "setting": "[3]; substrate 0.1 mM", "value": 235, "unit": "min⁻¹"}, {"measurement": "Mono 1 rate", "setting": "[3]; substrate 0.5 mM", "value": 171, "unit": "min⁻¹"}]}, {"smiles": "O=C1CCCCCCCCC1", "note": "[cyclodecanone]", "values": [{"measurement": "Mono 2 rate", "setting": "[2]; substrate 0.1 mM", "value": 1.8, "unit": "min⁻¹"}, {"measurement": "Mono 2 rate", "setting": "[2]; substrate 0.5 mM", "value": 1.2, "unit": "min⁻¹"}, {"measurement": "Mono 1 rate", "setting": "[3]; substrate 0.5 mM", "value": 1, "unit": "min⁻¹"}]}, {"smiles": "O=C1CCCCCCCCCCC1", "note": "[cyclododecanone]", "values": [{"measurement": "Mono 2 rate", "setting": "[2]; substrate 0.1 mM", "value": 1.2, "unit": "min⁻¹"}, {"measurement": "Mono 2 rate", "setting": "[2]; substrate 0.5 mM", "value": 1.8, "unit": "min⁻¹"}, {"measurement": "Mono 1 rate", "setting": "[3]; substrate 0.1 mM", "value": 1, "unit": "min⁻¹"}, {"measurement": "Mono 1 rate", "setting": "[3]; substrate 0.5 mM", "value": 0.9, "unit": "min⁻¹"}]}, {"smiles": "O=C1C=CCCC1", "note": "[cyclohex-2-ene-1-one]", "values": [{"measurement": "Mono 2 rate", "setting": "[2]; substrate 0.1 mM", "value": 64, "unit": "min⁻¹"}, {"measurement": "Mono 2 rate", "setting": "[2]; substrate 0.5 mM", "value": 80, "unit": "min⁻¹"}, {"measurement": "Mono 1 rate", "setting": "[3]; substrate 0.1 mM", "value": 2.3, "unit": "min⁻¹"}, {"measurement": "Mono 1 rate", "setting": "[3]; substrate 0.5 mM", "value": 1.9, "unit": "min⁻¹"}]}, {"smiles": "O=C1CCC(=O)CC1", "note": "[1,4-cyclohexanedione]", "values": [{"measurement": "Mono 2 rate", "setting": "[2]; substrate 0.1 mM", "value": 53, "unit": "min⁻¹"}, {"measurement": "Mono 2 rate", "setting": "[2]; substrate 0.5 mM", "value": 88, "unit": "min⁻¹"}, {"measurement": "Mono 1 rate", "setting": "[3]; substrate 0.1 mM", "value": 130, "unit": "min⁻¹"}, {"measurement": "Mono 1 rate", "setting": "[3]; substrate 0.5 mM", "value": 210, "unit": "min⁻¹"}]}, {"smiles": "O=C1CCCCCCC1", "note": "[cyclooctanone]", "values": [{"measurement": "Mono 2 rate", "setting": "[2]; substrate 0.1 mM", "value": 1.3, "unit": "min⁻¹"}, {"measurement": "Mono 2 rate", "setting": "[2]; substrate 0.5 mM", "value": 1.3, "unit": "min⁻¹"}, {"measurement": "Mono 1 rate", "setting": "[3]; substrate 0.1 mM", "value": 0.9, "unit": "min⁻¹"}, {"measurement": "Mono 1 rate", "setting": "[3]; substrate 0.5 mM", "value": 0.4, "unit": "min⁻¹"}]}, {"smiles": "CC1CCCCC1=O", "note": "(centres unmarked) [2-methylcyclohexanone]", "values": [{"measurement": "Mono 2 rate", "setting": "[2]; substrate 0.1 mM", "value": 37, "unit": "min⁻¹"}, {"measurement": "Mono 2 rate", "setting": "[2]; substrate 0.5 mM", "value": 97, "unit": "min⁻¹"}, {"measurement": "Mono 1 rate", "setting": "[3]; substrate 0.1 mM", "value": 250, "unit": "min⁻¹"}, {"measurement": "Mono 1 rate", "setting": "[3]; substrate 0.5 mM", "value": 260, "unit": "min⁻¹"}]}, {"smiles": "O=C1CCCC(=O)C1", "note": "[1,3-cyclohexanedione]", "values": [{"measurement": "Mono 2 rate", "setting": "[2]; substrate 0.1 mM", "value": 18, "unit": "min⁻¹"}, {"measurement": "Mono 2 rate", "setting": "[2]; substrate 0.5 mM", "value": 60, "unit": "min⁻¹"}, {"measurement": "Mono 1 rate", "setting": "[3]; substrate 0.1 mM", "value": 0.3, "unit": "min⁻¹"}, {"measurement": "Mono 1 rate", "setting": "[3]; substrate 0.5 mM", "value": 1.2, "unit": "min⁻¹"}]}]}
